Assay results reported in patent US7202084B2, “Beta-alanine N-methyltransferase” (University of Florida Research Foundation, Inc., priority 2001, dated 2007).

Columns and labels:
[1] = target: T1, L. latifolium NMTase (Limonium latifolium, UniProt Q84N56); test: Kinetic characterization of NMTase, radiometric assay; type: biochemical
T1 sequence (Q84N56 1-375): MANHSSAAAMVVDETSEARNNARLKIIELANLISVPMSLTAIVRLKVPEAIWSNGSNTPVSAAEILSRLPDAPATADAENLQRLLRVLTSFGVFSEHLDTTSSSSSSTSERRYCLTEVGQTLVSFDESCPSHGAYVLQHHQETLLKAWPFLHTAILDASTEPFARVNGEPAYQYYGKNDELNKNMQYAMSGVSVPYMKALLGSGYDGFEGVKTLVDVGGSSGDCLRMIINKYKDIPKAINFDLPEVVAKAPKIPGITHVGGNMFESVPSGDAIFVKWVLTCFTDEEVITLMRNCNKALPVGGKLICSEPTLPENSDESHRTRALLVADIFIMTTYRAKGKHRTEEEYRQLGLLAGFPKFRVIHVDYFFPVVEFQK
Procedure: Enzyme Assay. […] Following incubation at 30° C. for 30 minutes, the reactions were stopped by the addition of 10 μL of 10% (w/v) trichloroacetic acid containing 1 mM of methylated products as unlabeled carrier. Activated charcoal (38 mg.ml^-1) in 0.1 N acetic acid, 250 μL per assay, was added and centrifuged for five minutes. The radioactive product in the supernatant was quantified in 75% Ready Gel using a liquid scintillation counter (Beckman Instruments, Fullerton, Calif.). […] Kinetic Characterization. […] Kinetic constants were derived from the X and Y intercepts of a linear plot of s/v versus s drawn from triplicate assay results. Henderson, P J F (1993) Statistical analysis of enzyme kinetic data. In […]., Enzyme assays a practical approach, IRL Press, Oxford, pp. 276-316.

[2] = target: T1, L. latifolium NMTase; test: Effect of a thiol reagent on NMTase activities; type: biochemical; details: for % Activity DM: N,N-dimethyl β-alanine as methyl acceptor; for % Activity DM / % Activity MM / % Activity BA: mean ± SE, n=3; for % Activity MM: N-methyl β-alanine as methyl acceptor; for % Activity BA: β-alanine as methyl acceptor
Procedure: Enzyme Assay. […] The assay mixture contained 54 μL of enzyme preparation in a total volume of 100 μL containing 0.1 M Tris-HCl buffer pH 8.0, 2 mM DTT, 10 mM methyl acceptor, 100 μM AdoMet and 0.027 μM S-Adenosyl-L-[methyl-^3H]Met (200 nCi of radioactivity). Following incubation at 30° C. for 30 minutes, the reactions were stopped by the addition of 10 μL of 10% (w/v) trichloroacetic acid containing 1 mM of methylated products as unlabeled carrier. Activated charcoal (38 mg.ml^−1) in 0.1 N acetic acid, 250 μL per assay, was added and centrifuged for five minutes. The radioactive product in the supernatant was quantified in 75% Ready Gel using a liquid scintillation counter (Beckman Instruments, Fullerton, Calif.). The counting efficiency was 30%.
Effect of a Thiol Reagent. Protein purified using PEG precipitation was assayed with or without added DTT in the presence and absence of the thiol reagent p-hydroxymercuribenzoic acid.

[3] = 0.2 mM pHMB 10 min + 5 mM DTT for 30 min, relative to control
[4] = Minus DTT plus 0.2 mM pHMB, relative to control with 5 mM DTT

C[S+](CC[C@H](N)C(=O)[O-])C[C@H]1O[C@@H](n2cnc3c(N)ncnc32)[C@H](O)[C@@H]1O (stereo partly drawn) [Ado-Met, S-adenosyl-L-methionine]
Concentration above which substrate inhibition was exhibited ([1]; at 10 mM β-alanine): above 200 μM

Nc1ncnc2c1ncn2[C@@H]1O[C@H](CSCC[C@H](N)C(=O)O)[C@@H](O)[C@H]1O [AdoHCy, S-adenosyl-L-homocysteine]
Inhibition of NMTase (in words) [1]: highly inhibitory | IC50 ([1]; read-out: Concentration giving 50% inhibition of NMTase, 10 mM β-alanine and 100 μM Ado-Met): 40 µM

O=C(O)c1cc[c]([Hg+])cc1.[OH-] [pHMB, p-hydroxymercuribenzoate]
Inhibition of NMTase (in words) [2]: highly inhibited | Reversibility of the inhibition by DTT [2]: partially reversible | % Activity DM [2, 3]: 55.2 ± 7.6% | % Activity MM [2, 3]: 23.0 ± 2.9% | % Activity BA [2, 3]: 22.6 ± 2.9% | % Activity DM [2, 4]: 0.4 ± 0.2% | % Activity MM [2, 4]: 2.4 ± 1.4% | % Activity BA [2, 4]: 1.3 ± 0.7%
